From ChEMBL document CHEMBL1143423, “In vivo efficacy of moxifloxacin compared with cloxacillin and vancomycin in a Staphylococcus aureus rabbit arthritis experimental model” (Antimicrob Agents Chemother, 2007)
≈ marks a conversion by molar mass, not a printed value.

Experiments:
Staphylococcus aureus [1] = assay: microbe, parasite or virus in culture
Description: Antibacterial activity against methicillin-resistant Staphylococcus aureus by broth microdilution technique

[2] = Drug level in serum of Staphylococcus aureus infected rabbit arthritis model at 50 mg/kg, im administered thrice a day; format: ADME, organism-based, Oryctolagus cuniculus; parameters: dose 50 mg/kg, route intramuscular; conditions: in vivo
Staphylococcus aureus [3] = assay: Antibacterial activity against methicillin-sensitive Staphylococcus aureus infected rabbit arthritis model assessed as change in bacterial load per gram of synovial fluid at 50 mg/kg, im administered thrice a day after 7 days by broth microdilution technique; format: functional; conditions: route intramuscular
Staphylococcus aureus [4] = assay: Antibacterial activity against methicillin-sensitive Staphylococcus aureus by broth microdilution technique; format: functional
[5] = Drug level in serum of Staphylococcus aureus infected rabbit arthritis model at 100 mg/kg, iv administered daily; format: ADME, organism-based, Oryctolagus cuniculus; parameters: dose 100 mg/kg, route intravenous; conditions: in vivo
[6] = AUC (0 to 24 hrs) in Staphylococcus aureus infected rabbit arthritis model at 45 mg/kg, po; format: ADME, organism-based, Oryctolagus cuniculus; parameters: time < 24 hr, dose 45 mg/kg, route oral; conditions: in vivo
[7] = Cmax in human serum at 400 mg, po administered as single dose; format: ADME, organism-based; conditions: read-out: tCmax
[8] = Cmax in Staphylococcus aureus infected rabbit arthritis model at 45 mg/kg, po; format: ADME, organism-based, Oryctolagus cuniculus; parameters: dose 45 mg/kg, route oral; conditions: in vivo
Staphylococcus aureus [9] = assay: Antibacterial activity against ciprofloxacin and methicillin-resistant Staphylococcus aureus
[10] = AUC (0 to 24 hrs) in human serum at 400 mg, po administered as single dose; format: ADME, organism-based; parameters: time < 24 hr, dose 400 mg, route oral
[11] = Cmax in human serum at 400 mg, po administered as single dose after 1 hr; format: ADME, organism-based; parameters: dose 400 mg, route oral

| Structure (SMILES) | MIC (Staphylococcus aureus [1]) | Drug uptake [2] | deltalog10CFU (Staphylococcus aureus [3]) | MIC (Staphylococcus aureus [4]) | Drug uptake [5] | AUC(0-t) at 24 h [6] | Tmax [7] | Cmax [8] | MIC (Staphylococcus aureus [9]) | AUC(0-t) at 24 h [10] | Cmax [11] |
| --- | --- | --- | --- | --- | --- | --- | --- | --- | --- | --- | --- |
| Cc1onc(-c2ccccc2Cl)c1C(=O)N[C@@H]1C(=O)N2[C@@H]1SC(C)(C)[C@@H]2C(=O)O [CLOXACILLIN] | 4 µg/mL (≈ 9.18 µM) | 0.8 mg/L | 4.6 | 0.5 µg/mL (≈ 1.15 µM) | – | – | – | – | – | – | – |
| CN[C@H](CC(C)C)C(=O)N[C@H]1C(=O)N[C@@H](CC(N)=O)C(=O)N[C@H]2C(=O)N[C@H]3C(=O)N[C@H](C(=O)N[C@H](C(=O)O)c4cc(O)cc(O)c4-c4cc3ccc4O)[C@H](O)c3ccc(c(Cl)c3)Oc3cc2cc(c3O[C@@H]2O[C@H](CO)[C@@H](O)[C@H](O)[C@H]2O[C@H]2C[C@](C)(N)[C@H](O)[C@H](C)O2)Oc2ccc(cc2Cl)[C@H]1O [VANCOMYCIN] | – | – | – | 0.032 µg/mL (≈ 0.0221 µM) | 26.3 mg/L | – | – | – | – | – | – |
| COc1c(N2C[C@@H]3CCCN[C@@H]3C2)c(F)cc2c(=O)c(C(=O)O)cn(C3CC3)c12 [MOXIFLOXACIN] | 1 µg/mL (≈ 2.49 µM) | – | – | 0.032 µg/mL (≈ 0.0797 µM) | – | 37500 ng·h/mL | 1 h | 2850 ng/mL | 0.25 µg/mL (≈ 0.623 µM) | 35000 ng·h/mL | 2500 ng/mL |
